Laboratory results as given in ChEMBL document CHEMBL5236544, “Furazans in Medicinal Chemistry” (J Med Chem, 2021).

What was measured:
Jurkat = assay: Antiproliferative activity against human Jurkat cells assessed as reduction in cell viability measured after 48 hrs by MTT assay; format: functional, cell-based
HEL = assay: Antiproliferative activity against human HEL cells assessed as reduction in cell viability measured after 48 hrs by MTT assay; format: functional, cell-based
[1] = Half life in mouse; format: ADME, organism-based; settings: in vivo
K562 = assay: Antiproliferative activity against human K562 cells assessed as reduction in cell viability measured after 48 hrs by MTT assay; format: functional, cell-based; settings: K562, 48 h
HeLa = assay: cells; settings: Homo sapiens
Description: Antiproliferative activity against human HeLa cells assessed as reduction in cell viability

HCT-116 = assay: Antiproliferative activity against human HCT-116 cells assessed as reduction in cell viability by MTT assay; format: functional, cell-based
[2] = Cmax in Malonate induced Huntington disease […] model at 1.5 nmol administered intra striatal measured for 1 hr by LC/MS-MS analysis; format: ADME; design: time 1 hrs, dose 1.5 nmol; settings: in vivo
[3] = Half life in Malonate induced Huntington disease rat; format: ADME; settings: in vivo
NT2 = assay: Inhibition of camptothecin induced apoptosis in human NT2 cells incubated for 5 hrs in presence of camptothecin by ELISA method; format: functional, cell-based; settings: NT2, 5 h
Caspase-8 = Caspase-8 (Homo sapiens, UniProt Q14790); assay: Inhibition of caspase-8 (unknown origin)
Caspase-8, sequence (Q14790 217-374 limits assumed): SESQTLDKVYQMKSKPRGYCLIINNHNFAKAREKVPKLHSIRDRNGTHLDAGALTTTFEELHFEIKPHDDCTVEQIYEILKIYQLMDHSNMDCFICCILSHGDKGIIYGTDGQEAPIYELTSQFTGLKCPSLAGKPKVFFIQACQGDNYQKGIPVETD
Caspase-8, sequence (Q14790 385-479 limits assumed): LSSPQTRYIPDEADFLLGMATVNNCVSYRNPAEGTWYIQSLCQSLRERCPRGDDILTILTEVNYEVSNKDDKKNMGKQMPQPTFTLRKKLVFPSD

Caspase-7 = Caspase-7 (Homo sapiens, UniProt P55210); assay: Inhibition of caspase-7 (unknown origin)
Caspase-7, sequence (P55210 24-198 limits assumed): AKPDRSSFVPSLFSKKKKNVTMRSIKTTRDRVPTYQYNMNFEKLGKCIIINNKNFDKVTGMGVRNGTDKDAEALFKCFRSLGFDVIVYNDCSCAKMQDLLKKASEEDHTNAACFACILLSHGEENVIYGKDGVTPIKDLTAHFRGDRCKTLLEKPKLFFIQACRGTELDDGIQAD
Caspase-7, sequence (P55210 207-303 limits assumed): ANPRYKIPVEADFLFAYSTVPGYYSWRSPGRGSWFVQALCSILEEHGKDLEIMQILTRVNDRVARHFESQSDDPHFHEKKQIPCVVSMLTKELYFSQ

[4] = Drug concentration in ipsilateral striatum of malonate induced huntington disease rat measured after 24 hrs by LC/MS-MS analysis; format: ADME, tissue-based; settings: read-out: Ct
[5] = Drug concentration in ipsilateral striatum of malonate induced huntington disease rat measured after 6 hrs by LC/MS-MS analysis; format: ADME, tissue-based; settings: read-out: Ct
Caspase-3 = Caspase-3 (Homo sapiens, UniProt P42574); assay: Inhibition of caspase-3 (unknown origin)
Caspase-3, sequence (P42574 29-175 limits assumed): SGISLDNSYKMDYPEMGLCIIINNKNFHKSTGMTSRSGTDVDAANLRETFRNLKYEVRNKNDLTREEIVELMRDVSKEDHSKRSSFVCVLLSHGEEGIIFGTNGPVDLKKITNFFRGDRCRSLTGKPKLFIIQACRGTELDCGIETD
Caspase-3, sequence (P42574 176-277 limits assumed): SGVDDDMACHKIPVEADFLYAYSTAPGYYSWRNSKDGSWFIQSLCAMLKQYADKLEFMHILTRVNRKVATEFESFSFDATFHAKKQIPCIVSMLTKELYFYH

Caspase-1 = Caspase-1 (Homo sapiens, UniProt P29466); assay: Inhibition of caspase-1 (unknown origin)
Caspase-1, sequence (P29466 120-297 limits assumed): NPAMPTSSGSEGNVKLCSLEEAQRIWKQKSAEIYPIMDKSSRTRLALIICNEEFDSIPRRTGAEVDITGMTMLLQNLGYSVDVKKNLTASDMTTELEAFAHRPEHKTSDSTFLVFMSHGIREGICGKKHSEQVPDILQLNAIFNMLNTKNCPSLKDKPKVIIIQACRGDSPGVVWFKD
Caspase-1, sequence (P29466 317-404 limits assumed): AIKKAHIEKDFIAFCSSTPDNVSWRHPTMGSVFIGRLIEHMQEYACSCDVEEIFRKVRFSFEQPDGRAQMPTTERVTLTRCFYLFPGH

[6] = Inhibition of LPS induced TNF-alpha secretion in human THP-1 cells pretreated with LPS for 1 hr followed by compound addition and measured after 3 hrs by ELISA method; format: functional, cell-based
[7] = Inhibition of MAPK p38 (unknown origin); design: species or system Homo sapiens
Lactate dehydrogenase = Lactate dehydrogenase (Plasmodium falciparum, UniProt Q0PJ46); assay: Inhibition of recombinant Plasmodium falciparum LDH
Lactate dehydrogenase, sequence (Q0PJ46 whole entry): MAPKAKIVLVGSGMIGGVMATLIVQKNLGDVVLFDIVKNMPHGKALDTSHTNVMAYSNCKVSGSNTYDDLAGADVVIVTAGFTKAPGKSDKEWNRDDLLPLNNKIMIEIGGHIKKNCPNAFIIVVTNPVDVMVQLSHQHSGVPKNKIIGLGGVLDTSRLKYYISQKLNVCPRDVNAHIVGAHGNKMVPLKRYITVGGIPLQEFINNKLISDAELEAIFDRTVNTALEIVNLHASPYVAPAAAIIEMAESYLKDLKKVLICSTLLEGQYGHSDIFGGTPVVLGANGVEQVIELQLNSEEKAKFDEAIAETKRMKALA

[8] = Inhibition of human recombinant LDH
Plasmodium falciparum [9] = assay: Antimalarial activity against drug resistant Plasmodium falciparum KI; format: functional, organism-based
Plasmodium falciparum [10] = assay: Antimalarial activity against drug sensitive Plasmodium falciparum 3D7; format: functional, organism-based
[11] = Binding affinity to Plasmodium falciparum LDH assessed as inhibitory constant
physchem = settings: octanol/water
Description: Lipophilicity, log P of the compound

[12] = Inhibition of HIF (unknown origin); design: species or system Homo sapiens
[13] = Binding affinity to human wild type HIF2alpha assessed as dissociation constant by calorimetry assay
[14] = Inhibition of recombinant MAPK p38 (unknown origin) assessed as inhibition of MEF2A phosphorylation incubated for 5 mins by SDS-PAGE method; design: species or system Homo sapiens
[15] = biological target: T1, MAP kinase p38 (Homo sapiens) (UniProt O15264+Q15759+Q16539+P53778); assay: Inhibition of p38 (unknown origin) at 1.0 uM relative to control; format: protein assay
[16] = biological target: T2, c-Jun N-terminal kinase, JNK (Homo sapiens) (UniProt P45983+P53779+P45984); assay: Inhibition of JNK (unknown origin) at 1.0 uM relative to control; format: protein assay
[17] = biological target: T2, c-Jun N-terminal kinase, JNK (Homo sapiens); assay: Inhibition of JNK (unknown origin) at 10 uM relative to control; format: protein assay
[18] = Neuroprotective activity against neurons (unknown origin) assessed as rescue by measuring cytokine level at 10 uM relative to control; format: functional, Homo sapiens, Neuron
[19] = biological target: T1, MAP kinase p38 (Homo sapiens); assay: Inhibition of p38 (unknown origin) at 10 uM relative to control; format: protein assay
THP-1 [20] = assay: Antinflammatory activity in human THP-1 cells assessed as reduction of TNF-alpha at 10 uM relative to control; format: functional; design: scale not given: the % may be the effect or the level left
THP-1 [21] = assay: Antinflammatory activity in human THP-1 cells assessed as reduction of TNF-alpha at 1.0 uM relative to control; format: functional
[22] = Drug concentration in mouse plasma at 10 mg/kg, iv administered once daily measured after 2 hrs; format: ADME, organism-based
[23] = Drug concentration in mouse brain at 10 mg/kg, iv administered once daily measured after 2 hrs; format: ADME, organism-based; settings: read-out: Ct
[24] = Neuroprotective activity against neurons (unknown origin) assessed as rescue by measuring cytokine level at 1.0 uM relative to control; format: functional, Homo sapiens, Neuron
[25] = biological target: Tumor necrosis factor (Homo sapiens) (UniProt P01375); assay: Inhibition of TNF-alpha secretion in human THP-1 cells; design: concentration or dose not given beside the values; settings: concentration not given here
Tumor necrosis factor (Homo sapiens), sequence (P01375 whole entry, looked up): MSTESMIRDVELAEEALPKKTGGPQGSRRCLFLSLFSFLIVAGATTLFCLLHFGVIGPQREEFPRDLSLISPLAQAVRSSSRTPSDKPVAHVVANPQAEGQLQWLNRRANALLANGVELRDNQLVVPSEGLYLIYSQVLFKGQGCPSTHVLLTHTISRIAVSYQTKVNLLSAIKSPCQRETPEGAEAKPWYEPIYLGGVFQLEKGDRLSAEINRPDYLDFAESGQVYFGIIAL

[26] = biological target: Mitogen-activated protein kinase 14 (Homo sapiens) (UniProt Q16539); assay: Inhibition of recombinant p38alpha MAPK (unknown origin) at 10 uM preincubated for 10 mins followed by substrate addition and measured after 40 mins in the presence of ATP by ADP-Glo assay; settings: time 60.0 min
Mitogen-activated protein kinase 14 (Homo sapiens), sequence (Q16539 whole entry): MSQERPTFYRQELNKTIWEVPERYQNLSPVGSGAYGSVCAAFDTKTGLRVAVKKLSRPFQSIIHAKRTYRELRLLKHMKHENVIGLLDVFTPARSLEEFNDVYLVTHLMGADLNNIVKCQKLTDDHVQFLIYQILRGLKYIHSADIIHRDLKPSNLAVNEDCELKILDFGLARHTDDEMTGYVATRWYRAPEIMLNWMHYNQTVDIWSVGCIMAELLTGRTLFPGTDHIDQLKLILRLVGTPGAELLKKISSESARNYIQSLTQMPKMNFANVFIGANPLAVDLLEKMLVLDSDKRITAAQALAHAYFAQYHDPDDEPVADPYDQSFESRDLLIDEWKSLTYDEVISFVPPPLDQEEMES

[27] = biological target: T3, Amyloid-beta precursor protein (Homo sapiens, UniProt P05067); assay: Inhibition of amyloid beta (unknown origin) aggregation at 5 uM relative to control
T3 sequence (P05067 whole entry): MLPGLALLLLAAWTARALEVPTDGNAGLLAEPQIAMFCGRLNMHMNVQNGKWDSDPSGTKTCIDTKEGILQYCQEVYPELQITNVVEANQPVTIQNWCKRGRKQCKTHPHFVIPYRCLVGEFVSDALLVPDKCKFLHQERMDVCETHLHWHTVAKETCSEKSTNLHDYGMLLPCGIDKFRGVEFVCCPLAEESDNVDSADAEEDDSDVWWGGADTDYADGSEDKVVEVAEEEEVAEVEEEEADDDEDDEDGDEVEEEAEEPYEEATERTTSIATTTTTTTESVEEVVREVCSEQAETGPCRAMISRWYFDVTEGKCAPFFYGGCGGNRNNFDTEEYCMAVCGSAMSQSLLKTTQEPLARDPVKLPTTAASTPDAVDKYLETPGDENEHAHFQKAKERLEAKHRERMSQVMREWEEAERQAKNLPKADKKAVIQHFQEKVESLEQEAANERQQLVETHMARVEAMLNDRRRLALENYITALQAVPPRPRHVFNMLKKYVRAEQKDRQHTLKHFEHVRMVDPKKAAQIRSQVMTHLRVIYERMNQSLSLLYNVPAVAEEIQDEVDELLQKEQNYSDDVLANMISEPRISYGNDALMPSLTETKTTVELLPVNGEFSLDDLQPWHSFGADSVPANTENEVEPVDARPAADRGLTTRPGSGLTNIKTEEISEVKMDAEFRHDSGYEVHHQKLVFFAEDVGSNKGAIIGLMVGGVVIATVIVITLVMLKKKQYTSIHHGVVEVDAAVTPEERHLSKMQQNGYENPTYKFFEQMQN

[28] = biological target: 3',5'-cyclic-AMP phosphodiesterase 4D (Homo sapiens, UniProt Q08499); assay: Inhibition of human recombinant PDE4D
3',5'-cyclic-AMP phosphodiesterase 4D, sequence (Q08499 whole entry): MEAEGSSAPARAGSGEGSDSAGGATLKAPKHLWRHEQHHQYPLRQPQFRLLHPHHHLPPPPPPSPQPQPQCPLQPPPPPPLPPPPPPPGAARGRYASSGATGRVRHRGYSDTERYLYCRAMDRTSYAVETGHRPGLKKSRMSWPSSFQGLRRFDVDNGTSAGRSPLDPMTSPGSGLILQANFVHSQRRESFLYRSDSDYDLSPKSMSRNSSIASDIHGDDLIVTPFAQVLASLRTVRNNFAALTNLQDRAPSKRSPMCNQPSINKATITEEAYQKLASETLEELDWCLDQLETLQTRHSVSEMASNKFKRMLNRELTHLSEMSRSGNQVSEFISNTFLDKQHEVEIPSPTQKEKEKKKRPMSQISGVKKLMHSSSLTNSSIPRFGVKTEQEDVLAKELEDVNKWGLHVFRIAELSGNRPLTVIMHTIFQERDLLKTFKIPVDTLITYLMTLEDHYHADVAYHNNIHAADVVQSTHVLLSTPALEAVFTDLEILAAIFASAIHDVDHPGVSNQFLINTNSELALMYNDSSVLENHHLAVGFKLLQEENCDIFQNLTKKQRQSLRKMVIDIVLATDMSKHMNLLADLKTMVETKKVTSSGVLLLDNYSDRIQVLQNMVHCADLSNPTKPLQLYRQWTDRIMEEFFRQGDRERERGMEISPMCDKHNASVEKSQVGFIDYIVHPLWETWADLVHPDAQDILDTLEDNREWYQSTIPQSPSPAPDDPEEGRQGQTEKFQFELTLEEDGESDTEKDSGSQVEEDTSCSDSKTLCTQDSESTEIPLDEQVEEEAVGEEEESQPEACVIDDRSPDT

Rattus norvegicus = organism: Rattus norvegicus; assay: Anti-inflammatory activity against ovalbumin induced lung inflammatory rat model assessed as reduction in eosinophil influx; format: functional
Mus musculus = organism: Mus musculus; assay: Anti-inflammatory activity in LPS-induced inflammatory mouse model assessed as reduction in neutrophil influx; format: functional
[29] = Anti-inflammatory activity against human PBMCs assessed as reduction in LPS-induced TNF-alpha release by ELISA analysis; format: functional, cell-based; settings: PBMC
[30] = biological target: T3, Amyloid-beta precursor protein; assay: Inhibition of amyloid beta 42 in human HEK293 cells; format: cell-based
Plasmodium falciparum [31] = assay: Antimalarial activity against Plasmodium falciparum assessed as parasitic reduction at 100 mg/kg relative to control; format: functional; design: scale not given: the % may be the effect or the level left
[32] = Cmax in mouse at 100 mg/kg, ip; format: ADME, organism-based; design: dose 100 mg/kg, route ip; settings: in vivo
[33] = Half life in mouse at 10 mg/kg, ip; format: ADME, organism-based; settings: in vivo
[34] = Cmax in mouse at 100 mg/kg, po; format: ADME, organism-based; design: dose 100 mg/kg, route po; settings: in vivo
Plasmodium falciparum [35] = assay: Antimalarial activity against Plasmodium falciparum assessed as parasitic reduction at 10 mg/kg of chloroquine relative to control; format: functional; design: scale not given: the % may be the effect or the level left
[36] = Half life in mouse at 10 mg/kg, po; format: ADME, organism-based; settings: in vivo
[37] = Inhibition of p70S6K (unknown origin); design: species or system Homo sapiens
[38] = biological target: Ribosomal protein S6 kinase alpha-1 (Homo sapiens, UniProt Q15418); assay: Inhibition of RSK1 (unknown origin)
Ribosomal protein S6 kinase alpha-1, sequence (Q15418 whole entry): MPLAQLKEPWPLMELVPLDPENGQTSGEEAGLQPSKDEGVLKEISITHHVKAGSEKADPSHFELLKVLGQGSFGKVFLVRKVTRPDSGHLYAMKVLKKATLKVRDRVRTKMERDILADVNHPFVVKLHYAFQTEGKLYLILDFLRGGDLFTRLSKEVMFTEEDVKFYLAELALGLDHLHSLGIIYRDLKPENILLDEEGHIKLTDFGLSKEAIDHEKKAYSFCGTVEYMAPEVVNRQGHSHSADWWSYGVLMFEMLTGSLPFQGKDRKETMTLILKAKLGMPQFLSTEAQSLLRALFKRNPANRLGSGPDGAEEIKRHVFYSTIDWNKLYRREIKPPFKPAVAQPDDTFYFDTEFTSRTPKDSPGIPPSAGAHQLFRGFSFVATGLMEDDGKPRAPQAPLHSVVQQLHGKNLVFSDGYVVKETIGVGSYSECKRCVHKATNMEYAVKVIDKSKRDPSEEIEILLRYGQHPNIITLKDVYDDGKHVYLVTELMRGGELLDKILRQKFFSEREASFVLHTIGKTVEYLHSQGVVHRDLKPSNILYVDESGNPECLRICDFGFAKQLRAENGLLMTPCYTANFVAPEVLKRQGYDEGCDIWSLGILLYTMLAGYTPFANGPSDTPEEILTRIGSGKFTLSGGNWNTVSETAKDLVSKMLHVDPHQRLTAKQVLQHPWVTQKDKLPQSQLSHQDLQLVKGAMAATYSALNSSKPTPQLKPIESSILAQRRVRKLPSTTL

[39] = Inhibition of GSK3 (unknown origin); design: species or system Homo sapiens

For CC1(C)CC[C@]2(C(=O)O)CC[C@]3(C)C(=CC[C@@H]4[C@@]5(C)Cc6nonc6C(C)(C)[C@@H]5CC[C@]43C)[C@@H]2C1, the EC50 (Jurkat) was 290 nM, the EC50 (HEL) was > 210 nM and the half-life [1] was 1.5 h. For the same compound, the EC50 (K562) was 780 nM.
Compound Nc1nonc1/C(=N/O)NCc1ccccc1 has an EC50 (HeLa) of 1000 nM.
Work on O=C(Nc1ccc(C(F)(F)F)cc1)Nc1nonc1-c1ccc(Cl)cc1 yielded an EC50 (HCT-116) of 2500 nM.
Compound CCCCCCN(C)CC(=O)C(CC(=O)O)NC(=O)[C@H](CC)n1cc(C(C)(C)C)nc(NCc2nonc2C)c1=O (some centres not stated) has a Cmax [2] of 32.2 µM, a half-life [3] of 3 h and an EC50 (NT2) of 21 nM. For the same compound, the IC50 (Caspase-8) was 6480 nM, the IC50 (Caspase-7) was 42 nM and the concentration at 24 h [4] was 0.1 µM. For the same compound, the concentration at 6 h [5] was 5.1 µM, the IC50 (Caspase-3) was 6 nM and the IC50 (Caspase-1) was 67 nM.
Cc1ccc(Cl)cc1Nc1ccc([N+](=O)[O-])c2nonc12 gave an EC50 [6] of 1800 nM and an IC50 [7] of 6300 nM.
In the case of O=C(O)c1nsnc1O, the IC50 (Lactate dehydrogenase) is reported as 140 nM, the IC50 [8] is reported as 10300 nM and the EC50 (Plasmodium falciparum [9]) is reported as 144000 nM. For the same compound, the EC50 (Plasmodium falciparum [10]) was 75300 nM, the EC90 (Plasmodium falciparum [10]) was > 170000 nM and the Ki [11] was 290 nM.
O=[N+]([O-])c1c(Nc2cc(F)cc(Cl)c2)ccc2nonc12 gave a logP (physchem) of 3.99, an IC50 [12] of 100 nM and a Kd [13] of 80 nM.
In the case of Cc1ccc(Cl)cc1Nc1cc(Cl)c2nonc2c1[N+](=O)[O-], the IC50 [14] is reported as 10000 nM.
Fc1cc(Br)cc([C@@H]2C[C@H](c3cccc(Br)c3)n3nnnc3N2)c1 gave a logP (physchem) of 4.4, an IC50 [12] of 43000 nM and a Kd [13] of 23 nM.
Compound CCCOc1ccc(Nc2nc3nonc3nc2N2CCC(Oc3ccc(Cl)cc3)CC2)cc1 has an inhibition [15] of 37%, an inhibition [16] of 49% and an inhibition [17] of 98%. For the same compound, the Activity [18] was 51%, the inhibition [19] was 99% and the Activity (THP-1 [20]) was 74%. For the same compound, the inhibition at 1 µM (THP-1 [21]) was 51%, the concentration at 2 h [22] was 0.43 µM and the concentration at 2 h [23] was 0.8 µM. It also gave an Activity [24] of 33%, an inhibition [25] of 74% and an inhibition [26] of 99%.
With OC(c1cccc(-c2cc(NCc3ccccc3)c3nonc3c2)c1)C(F)(F)F (configuration not stated) the inhibition [27] was 57.1%.
O=C(O)[C@H]1CC[C@H](c2cc3cccnc3c(-c3cccc(F)c3)n2)CC1 showed an IC50 [28] of 41 nM, an ED50 (Rattus norvegicus) of 0.0034 µmol/kg and an ED50 (Mus musculus) of 0.032 µmol/kg. For the same compound, the EC50 [29] was 126 nM.
For CC(C)CC(C(=O)O)c1cc(Cl)c(OCC2CC2)c(-c2ccc(C(F)(F)F)cc2)c1 (configuration not stated), the EC50 [30] was 70 nM.
Compound O=C(O)c1conc1O has an IC50 (Lactate dehydrogenase) of 1100 nM, an Activity (Plasmodium falciparum [31]) of 30% and an IC50 [8] of 54000 nM. The Cmax [32] was 158 µM, the half-life [33] was 1.1 h and the Cmax [34] was 153 µM. It also gave an Activity (Plasmodium falciparum [35]) of 100%, a half-life [36] of 1.6 h and an EC50 (Plasmodium falciparum [10]) of 74400 nM. The EC90 (Plasmodium falciparum [10]) was > 200000 nM and the Ki [11] was 470 nM.
Work on CCn1c(-c2nonc2N)nc2cnccc21 yielded an IC50 [37] of 70 nM, an IC50 [38] of 24 nM and an IC50 [39] of 33 nM.
